Data reported in publication PMC5647335, “Controlling the bioactivity of a peptide hormone in vivo by reversible self-assembly” (Nature Communications, 2017).

Tested on: CHO-hGLP-1R cells
Format: cell-based, Chinese hamster
Details: 48 h treatment, resazurin 5 h, fluorescence 590 nm; Oxm concentrations up to 1000-fold above the EC50; three independent experiments
Method: CHO-hGLP-1R cells in growth medium (DMEM, 10%FBS Sigma-Aldrich) were plated at 10,000 cells per well in 96-well black clear-bottom poly-D-lysine-coated microtiter plates (Corning, USA). […] Fluorescence emission was measured at 590 nm (560 nm excitation).

Compound | in vitro cytotoxicity (cell viability)
Cn1cc(C2=C(c3cn(CCCSC(=N)N)c4ccccc34)C(=O)NC2=O)c2ccccc21 [Ro-318220] | expected curves of concentration vs. loss of cell viability
CN[C@@H]1C[C@H]2O[C@@](C)([C@@H]1OC)n1c3ccccc3c3c4c(c5c6ccccc6n2c5c31)C(=O)NC4 [staurosporine] | expected curves of concentration vs. loss of cell viability
